# Assay results from patent US10570129B2 (Zoetis Services LLC, priority 2015, dated 2020).
# Legend:
# D. immitis microfilariae = assay: Dirofilaria immitis, microfilariae (DiMF) in vitro motility assay; type: cell-based; conditions: Dirofilaria immitis, 72 h, read-out: DiMF minimally effective dose (MEC)
# Haemonchus contortus L3 = assay: microbe, parasite or virus in culture; type: cell-based; conditions: Haemonchus contortus, 96 h, read-out: HcL3 Minimal Effective Concentration (MEC)
smiles,measurement,setting,value
"O=C(NCc1ccnc(Cl)c1)n1c2c(c3cc(C(F)(F)F)ccc31)CN(C/C=C/c1ccc(Cl)cc1)CC2 [Example 332, (E)-2-(3-(4-chlorophenyl)allyl)-N-((2-chloropyridin-4-yl)methyl)-8-(trifluoromethyl)-1,2,3,4-tetrahydro-5H-pyrido[4,3-b]indole-5-carboxamide]",minimal effective concentration,D. immitis microfilariae,13.5 µM
same,minimal effective concentration,Haemonchus contortus L3,1 µM
"O=C(NCc1ccnc(Cl)c1)n1c2c(c3ccc(Cl)cc31)CN(C/C=C/c1ccc(C(F)(F)F)cc1)CC2 [Example 223, (E)-7-chloro-N-((2-chloropyridin-4-yl)methyl)-2-(3-(4-(trifluoromethyl)-phenyl)allyl)-1,2,3,4-tetrahydro-5H-pyrido[4,3-b]indole-5-carboxamide]",minimal effective concentration,D. immitis microfilariae,3.3 µM
same,minimal effective concentration,Haemonchus contortus L3,10 µM
"N#Cc1ccc2c(c1)c1c(n2C(=O)NCc2ccnc(Cl)c2)CCN(C/C=C/c2ccc(F)c(C#N)c2)C1 [Example 98, (E)-N-((2-chloropyridin-4-yl)methyl)-8-cyano-2-(3-(3-cyano-4-fluorophenyl)allyl)-1,2,3,4-tetrahydro-5H-pyrido[4,3-b]indole-5-carboxamide]",minimal effective concentration,D. immitis microfilariae,> 100 µM
same,minimal effective concentration,Haemonchus contortus L3,0.3 µM
"N#Cc1ccc2c3c(n(C(=O)NCc4ccnc(F)c4)c2c1)CCN(C/C=C/c1cc(F)cc(OC(F)(F)F)c1)C3 [Example 54, (E)-7-cyano-2-(3-(3-fluoro-5-(trifluoromethoxy)phenyl)allyl)-N-((2-fluoro-pyridin-4-yl)methyl)-1,2,3,4-tetrahydro-5H-pyrido[4,3-b]indole-5-carboxamide]",minimal effective concentration,D. immitis microfilariae,10 µM
same,minimal effective concentration,Haemonchus contortus L3,> 100 µM
"N#Cc1ccc(/C=C/CN2CCc3c(c4c(Cl)c(F)ccc4n3C(=O)NCc3ccnc(Cl)c3)C2)cc1 [Example 303, (E)-9-chloro-N-((2-chloropyridin-4-yl)methyl)-2-(3-(4-cyanophenyl)allyl)-8-fluoro-1,2,3,4-tetrahydro-5H-pyrido[4,3-b]indole-5-carboxamide]",minimal effective concentration,D. immitis microfilariae,57.4 µM
same,minimal effective concentration,Haemonchus contortus L3,1 µM
"O=C(NCc1ccnc(Cl)c1)n1c2c(c3cc(Cl)ccc31)CN(C/C=C/c1ccc(C(F)(F)F)cc1)CC2 [Example 246, (E)-8-chloro-N-((2-chloropyridin-4-yl)methyl)-2-(3-(4-(trifluoromethyl)-phenyl)allyl)-1,2,3,4-tetrahydro-5H-pyrido[4,3-b]indole-5-carboxamide]",minimal effective concentration,D. immitis microfilariae,10 µM
same,minimal effective concentration,Haemonchus contortus L3,3.3 µM
"N#Cc1ccc2c3c(n(C(=O)NCc4ccnc(Cl)c4)c2c1)CCN(C/C=C/c1ccc(F)c(Cl)c1)C3 [Example 27, (E)-2-(3-(3-chloro-4-fluorophenyl)allyl)-N-((2-chloropyridin-4-yl)methyl)-7-cyano-1,2,3,4-tetrahydro-5H-pyrido[4,3-b]indole-5-carboxamide]",minimal effective concentration,D. immitis microfilariae,1.8 µM
same,minimal effective concentration,Haemonchus contortus L3,1.8 µM
"Cc1ccc2c3c(n(C(=O)NCc4ccnc(Cl)c4)c2c1)CCN(C/C=C/c1ccc(Cl)c(Cl)c1)C3 [Example 145, (E)-N-((2-chloropyridin-4-yl)methyl)-2-(3-(3,4-dichlorophenyl)allyl)-7-methyl-1,2,3,4-tetrahydro-5H-pyrido[4,3-b]indole-5-carboxamide]",minimal effective concentration,D. immitis microfilariae,33 µM
same,minimal effective concentration,Haemonchus contortus L3,1 µM
"N#Cc1ccc(/C=C/CN2CCc3c(c4ccc(C(F)(F)F)cc4n3C(=O)NCc3ccnc(Cl)c3)C2)cc1F [Example 153, (E)-N-((2-chloropyridin-4-yl)methyl)-2-(3-(4-cyano-3-fluorophenyl)allyl)-7-(trifluoromethyl)-1,2,3,4-tetrahydro-5H-pyrido[4,3-b]indole-5-carboxamide]",minimal effective concentration,D. immitis microfilariae,7.6 µM
same,minimal effective concentration,Haemonchus contortus L3,1.3 µM
"O=C(NCc1ccnc(Cl)c1)n1c2c(c3ccc(Br)cc31)CN(C/C=C/c1ccc(F)cc1F)CC2 [Example 199, (E)-7-bromo-N-((2-chloropyridin-4-yl)methyl)-2-(3-(2,4-difluorophenyl)allyl)-1,2,3,4-tetrahydro-5H-pyrido[4,3-b]indole-5-carboxamide]",minimal effective concentration,D. immitis microfilariae,24.5 µM
same,minimal effective concentration,Haemonchus contortus L3,5.7 µM
